The values below come from patent US10947196B2, “Beta adrenergic agonist and methods of using the same” (CURASEN THERAPEUTICS, INC., priority 2019, dated 2021).

Read-outs that look alike come from different tables or passages of the source.

A short description of series [1]: Hepatocyte stability (mouse). Format: in vitro ADME. The conditions noted are these: 0.5×10^6 viable cells/mL. Here is the method: 10 mM and 100 μM stock solutions of test compound(s) and a positive control were prepared in appropriate solvent (DMSO). In separate conical tubes, the 10 mM test compound and the positive control were diluted to 100 μM by combining 198 μL of 50% acetonitrile/50% water and 2 μL of 10 mM stock. The 100 μM test compound and the positive control were diluted to 30 μM by combining 140 μL of 50% acetonitrile/50% water and 60 μL of 100 μM stock solution. The 100 μM test compound and the positive control were diluted to 10 μM by combining 180 μL of 50% acetonitrile/50% water and 20 μL of 100 μM stock solution. The 100 μM test compound and the positive control were diluted to 3 μM by combining 194 μL of 50% acetonitrile/50% water and 6 μL of 100 μM stock solution.
Incubation medium (William's E Medium supplemented with GlutaMAX) and hepatocyte thawing medium was placed in a 37° C. water bath, and allowed to warm for at least 15 minutes prior to use. […]
Using AOPI staining solution, cells were counted and the viable cell density was determined. […]
All calculations were carried out using Microsoft Excel. Peak areas were determined from extracted ion chromatograms. […]
The in vitro half-life (in vitro t1/2) was determined from the slope value: in vitro t1/2=0.693/k

The next series has as its target B3-AR (Homo sapiens (Human), UniProt P13945). Briefly: cAMP potency assay, B3-AR expressing CHO-K1 cells. The format is cell-based.
Setting [2] is: read-out: Average pEC50 [Receptor subtype: B3-AR, Cell type: CHO-K1] (converted).

Sequence of B3-AR (P13945 whole entry, species assumed): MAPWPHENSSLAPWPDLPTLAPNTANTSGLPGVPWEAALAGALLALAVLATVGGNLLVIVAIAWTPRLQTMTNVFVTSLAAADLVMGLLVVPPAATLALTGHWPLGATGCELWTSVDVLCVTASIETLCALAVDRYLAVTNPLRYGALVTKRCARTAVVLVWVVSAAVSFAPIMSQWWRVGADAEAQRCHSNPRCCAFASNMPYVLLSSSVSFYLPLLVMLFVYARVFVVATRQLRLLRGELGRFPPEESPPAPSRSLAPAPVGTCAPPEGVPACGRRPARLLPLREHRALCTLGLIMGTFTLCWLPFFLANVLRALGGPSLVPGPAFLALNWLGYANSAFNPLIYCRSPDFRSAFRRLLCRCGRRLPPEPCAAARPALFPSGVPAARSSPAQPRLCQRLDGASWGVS

For the compound `CC(C)(C)NC[C@H](O)c1cccc(C#N)n1` [Compound 03-5, (S)-6-(2-(tert-butylamino)-1-hydroxyethyl)picolinonitrile], the “Hepatocyte stability, Mouse” value in series [1] was 1.46 μL/min/10^6 cells. The EC50 on B3-AR (read-out: Average EC50 [Receptor subtype: B3-AR, Cell type: CHO-K1]) is 0.1 to 1 µM; at B3-AR (setting [2]), over 1 µM.
Turning to `Cc1ncccc1[C@@H](O)CNC(C)(C)C` [Compound 03-115], in series [1], the “Hepatocyte stability, Mouse” value is 1.08 μL/min/10^6 cells. In addition, the EC50 at B3-AR (setting [2]) is over 1 µM.
